# Patent EP0515796A1, “5-Aminoacyl-5,10-dihydro-11H-dibenzo(b,e)(1,4)diazepin-11-ones, processes for their preparation, and their use as medicaments” (ARZNEIMITTELWERK DRESDEN GmbH, priority 1991, dated 1992)
# Where a name gives a salt, the structure may show the parent alone. Read-outs that look alike come from different tables or passages of the source. Marks after values point to notes of the source that are not given here.
# Key:
# CaCl2-Arrhythmie = assay: CaCl2-induced arrhythmia in the rat (antifibrillatory effect); assay type: in vivo, Ratte; details: for ED50: read-out: CaCl2-Arrhythmie Ratte, ED50
# in vivo = assay type: in vivo; details: in vivo; for LD50: intravenous use according to b33, values in brackets = confidence range, read-out: akute Toxizität Ratte, LD50; for selectivity ratio: therapeutic breadth, read-out: Q LD50/ED50
# Ratte [1] = assay: in vivo; assay type: in vivo
# Ratte [2] = details: rat, values in brackets = confidence range, cited from earlier work
# [3] = rat, antifibrillatory effect, values in brackets = confidence range
# [4] = rat LD50 / rat CaCl2-arrhythmia ED50
Compound,ED50 (CaCl2-Arrhythmie; [3]),LD50 (in vivo; rat),selectivity ratio (in vivo; [4]),further results
C=CC1CN2CCC1CC2C(O)c1ccnc2ccc(OC)cc12 (stereo not drawn) [Chinidin],2.7 mg/kg,48 mg/kg,,"selectivity ratio (in vivo; rat, rat LD50 / rat CaCl2-arrhythmia ED50): 18"
CCN(CC)CC(=O)Nc1c(C)cccc1C [Lidokain],3.1 mg/kg,,,
"CN1C(=O)c2ccccc2N(C(=O)CCCCCNC2CCCCC2)c2ccccc21 [Beispiel 7, 5-(6-Cyclohexylamino-hexanoyl)-5,10-dihydro-10-methyl-11H-dibenzo/b,e//1,4/diazepin-11-on.HCl]",0.025 mg/kg,32 mg/kg,1280,
"CN1C(=O)c2ccccc2N(C(=O)CCCCCNC2CCCCC2)c2ccc(Cl)cc21 [Beispiel 8, 8-Chlor-5-(6-cyclohexylamino-hexanoyl)-5,10-dihydro-10-methyl-11H-dibenzo/b,e//1,4/diazepin-11-on.HCl]",0.33 mg/kg,35 mg/kg,106,
"5-(6-Diethylamino-hexanoyl)-5,10-dihydro-10-methyl-11H-dibenzo/b,e//1,4/diazepin-11-on.HCl.0,5 H₂O [Beispiel 4]",,,,"CaCl2-Arrhythmie Ratte, ED50 (CaCl2-Arrhythmie; [3]): 0,033 (0,011 - 0,10) mg/kg; akute Toxizität Ratte, LD50 (Ratte [1]; rat, intravenous use according to b33, values in brackets = confidence range): 78 (73 - 84) mg/kg; Q LD50/ED50 (Ratte [1]; therapeutic breadth, rat LD50 / rat CaCl2-arrhythmia ED50): 2364"
CC(C)N(CCC(C(N)=O)(c1ccccc1)c1ccccn1)C(C)C (racemic) [Disopyramid],,,,"akute Toxizität Ratte, LD50 (Ratte [2]; m (male), literature value from the Palpitin (R) brochure, Gedeon Richter): m 72 (60 - 80) * mg/kg; akute Toxizität Ratte, LD50 (Ratte [2]; w (female), literature value (footnote mark printed only on the m line)): w 66 (50 - 110) mg/kg; ED50 (CaCl2-Arrhythmie; Rattus norvegicus): 1.3 mg/kg; selectivity ratio (in vivo; rat, worked out with the cited LD50 of m (male) rats): 55; selectivity ratio (in vivo; rat, worked out with the cited LD50 of w (female) rats): 50"
